Laboratory results: patent publication US10906940B2, “Antimicrobial peptides, pharmaceutical compositions, and methods of use thereof” (priority 2014, dated 2021)
≈ marks a conversion by molar mass, not a printed value. Where a SMILES comes first, the peptide text is derived from it. Bridges are numbered along the chain shown (N, C = ends). [ ]: non-standard residue; d: D form. The star is where a group is joined. Pentadecanoyl = CCCCCCCCCCCCCCC(=O)*; Tridecanoyl = CCCCCCCCCCCCC(=O)*; dOrn = NCCC[C@@H](N)C(=O)O

Key:
[1] = tested on: Enterobacter cloacae SBJ-9395; type: cell-based; details: SBJ-9395
Excerpt: (§1) The same MIC assay as in Example 6 was used to determine the antimicrobial susceptibility of Compound A, L-form (FIG. 15), and several variants. One variant was Compound A, D-form, with D-Lysine at position 7. Compound B is a variant in the fatty acid chain, with a fatty acid chain composition of C15H29O, and having D-Lys at position 7. Compound C is a variant in the fatty acid chain with a fatty acid chain composition of C11H21O, and having D-Lys at position 7. Variant D is a sequence variant with Phe at position 6 of the cyclic peptide, and having D-Lys at position 7. All variants were chemically synthesized.

[2] = tested on: Salmonella CVM 1290 (cmy2); type: cell-based
Excerpt: as §1

[3] = tested on: Salmonella CVM 40118 (oxa-1); type: cell-based
Excerpt: as §1

[4] = tested on: Salmonella CVM 40119 (tem 12); type: cell-based
Excerpt: as §1

[5] = tested on: Serratia marcescens SAMN 04276915; type: cell-based; details: SAMN 04276915
Excerpt: as §1

[6] = tested on: Serratia marcescens SAMN04022954; type: cell-based; details: SAMN04022954
Excerpt: as §1

[7] = tested on: Serratia marcescens SBJ-8283; type: cell-based; details: SBJ-8283
Excerpt: as §1

[8] = tested on: Serratia marcescens SBJ-9047; type: cell-based; details: SBJ-9047
Excerpt: as §1

S. aureus 10 = test: microbe, parasite or virus in culture; type: cell-based, Staphylococcus aureus; details: 10
Excerpt: as §1

S. aureus 12 = test: microbe, parasite or virus in culture; type: cell-based, Staphylococcus aureus; details: 12
Excerpt: as §1

S. aureus 14 = test: microbe, parasite or virus in culture; type: cell-based, Staphylococcus aureus; details: 14
Excerpt: as §1

S. aureus 19 = test: microbe, parasite or virus in culture; type: cell-based, Staphylococcus aureus; details: 19
Excerpt: as §1

S. aureus 2 = test: microbe, parasite or virus in culture; type: cell-based, Staphylococcus aureus; details: 2
Excerpt: as §1

S. aureus 4 = test: microbe, parasite or virus in culture; type: cell-based, Staphylococcus aureus; details: 4
Excerpt: as §1

S. aureus 6 = test: microbe, parasite or virus in culture; type: cell-based, Staphylococcus aureus; details: 6
Excerpt: as §1

S. aureus 8 = test: microbe, parasite or virus in culture; type: cell-based, Staphylococcus aureus; details: 8
Excerpt: as §1

E. coli CVM 15100 (mir1) = type: cell-based, Escherichia coli
Excerpt: as §1

E. coli CVM 15103 (tem2) = type: cell-based, Escherichia coli
Excerpt: as §1

E. coli CVM 15104 (shv3) = type: cell-based, Escherichia coli
Excerpt: as §1

[9] = tested on: E. coli CVM 35778 (ctx-m-2); type: cell-based, Escherichia coli
Excerpt: as §1

[10] = tested on: E. coli CVM 40126 (oxa-1); type: cell-based, Escherichia coli
Excerpt: as §1

[11] = tested on: E. coli CVM 40127 (oxa-2); type: cell-based, Escherichia coli
Excerpt: as §1

[12] = tested on: E. coli CVM 40128 (oxa-7); type: cell-based, Escherichia coli
Excerpt: as §1

[13] = tested on: E. coli CVM 40129 (oxa-5); type: cell-based, Escherichia coli
Excerpt: as §1

[14] = tested on: E. coli CVM 40130 (oxa-9); type: cell-based, Escherichia coli
Excerpt: as §1

[15] = tested on: E. coli CVM 40131 (ctx-m-2); type: cell-based, Escherichia coli
Excerpt: as §1

[16] = tested on: E. coli CVM 40132 (ctx-m-9); type: cell-based, Escherichia coli
Excerpt: as §1

[17] = tested on: E. coli CVM 40133 (ctx-m-14); type: cell-based, Escherichia coli
Excerpt: as §1

[18] = tested on: E. coli CVM 40134 (ctx-m-15); type: cell-based, Escherichia coli
Excerpt: as §1

[19] = tested on: E. coli CVM 40136 (tem 52b); type: cell-based, Escherichia coli
Excerpt: as §1

[20] = tested on: E. coli CVM 40137 (DHA-1); type: cell-based, Escherichia coli
Excerpt: as §1

[21] = tested on: E. coli CVM 40138 (LCR-1); type: cell-based, Escherichia coli
Excerpt: as §1

[22] = tested on: E. coli CVM 40139 (fox-1); type: cell-based, Escherichia coli
Excerpt: as §1

[23] = tested on: E. coli CVM 40141 (imp-1); type: cell-based, Escherichia coli
Excerpt: as §1

[24] = tested on: E. coli CVM 40143 (act-1); type: cell-based, Escherichia coli
Excerpt: as §1

[25] = tested on: E. coli CVM 40147 (vim-2); type: cell-based, Escherichia coli
Excerpt: as §1

E. coli CVM40146 (vim-1) = type: cell-based, Escherichia coli
Excerpt: as §1

E. coli CVM40148 (veb-1) = type: cell-based, Escherichia coli
Excerpt: as §1

[26] = tested on: E. cloacae CVM 15101 (P99); type: cell-based, Enterobacter cloacae
Excerpt: as §1

[27] = tested on: P. aeruginosa CVM 40144 (PER-1); type: cell-based, Pseudomonas aeruginosa
Excerpt: as §1

Row | Structure (SMILES) | MIC [1] | MIC [2] | MIC [3] | MIC [4] | MIC [5] | MIC [6] | MIC [7] | MIC [8] | MIC (S. aureus 10) | MIC (S. aureus 12) | MIC (S. aureus 14) | MIC (S. aureus 19) | MIC (S. aureus 2) | MIC (S. aureus 4) | MIC (S. aureus 6) | MIC (S. aureus 8) | MIC (E. coli CVM 15100 (mir1)) | MIC (E. coli CVM 15103 (tem2)) | MIC (E. coli CVM 15104 (shv3)) | MIC [9] | also measured
1 | CCCCCCCCCCCCCCC(=O)N[C@H](CCCN)C(=O)N[C@H](C(=O)N[C@@H]1C(=O)N[C@H](CCCN)C(=O)N[C@@H](CO)C(=O)N[C@@H](Cc2ccc(O)cc2)C(=O)N[C@H](CCCCN)C(=O)N[C@H](CO)C(=O)N[C@@H]([C@@H](C)CC)C(=O)N2CCC[C@H]2C(=O)N[C@@H]([C@@H](C)CC)C(=O)N2CCC[C@H]2C(=O)N[C@@H]([C@@H](C)CC)C(=O)O[C@@H]1C)C(C)C [Compound B] (Pentadecanoyl-[dOrn]VT[dOrn]SY[dK][dS]IPIPI; ester 3-C; N-terminus assumed) | 16 µg/mL (≈ 9.68 µM) | 16 µg/mL (≈ 9.68 µM) | 4 µg/mL (≈ 2.42 µM) | 8 µg/mL (≈ 4.84 µM) | ≥128 µg/mL | ≥128 µg/mL | 32 µg/mL (≈ 19.4 µM) | ≥128 µg/mL | 4 µg/mL (≈ 2.42 µM) | 4 µg/mL (≈ 2.42 µM) | 4 µg/mL (≈ 2.42 µM) | 4 µg/mL (≈ 2.42 µM) | 4 µg/mL (≈ 2.42 µM) | 4 µg/mL (≈ 2.42 µM) | 8 µg/mL (≈ 4.84 µM) | 4 µg/mL (≈ 2.42 µM) | 16 µg/mL (≈ 9.68 µM) | 8 µg/mL (≈ 4.84 µM) | 16 µg/mL (≈ 9.68 µM) | 32 µg/mL (≈ 19.4 µM) | MIC [10]: 4 µg/mL (≈ 2.42 µM); MIC [11]: 16 µg/mL (≈ 9.68 µM); MIC [12]: 8 µg/mL (≈ 4.84 µM); MIC [13]: 8 µg/mL (≈ 4.84 µM); MIC [14]: 8 µg/mL (≈ 4.84 µM); MIC [15]: 8 µg/mL (≈ 4.84 µM); MIC [16]: 16 µg/mL (≈ 9.68 µM); MIC [17]: 16 µg/mL (≈ 9.68 µM); MIC [18]: 8 µg/mL (≈ 4.84 µM); MIC [19]: 8 µg/mL (≈ 4.84 µM); MIC [20]: 16 µg/mL (≈ 9.68 µM); MIC [21]: 8 µg/mL (≈ 4.84 µM); MIC [22]: 16 µg/mL (≈ 9.68 µM); MIC [23]: 16 µg/mL (≈ 9.68 µM); MIC [24]: 16 µg/mL (≈ 9.68 µM); MIC [25]: 16 µg/mL (≈ 9.68 µM); MIC (E. coli CVM40146 (vim-1)): 8 µg/mL (≈ 4.84 µM); MIC (E. coli CVM40148 (veb-1)): 8 µg/mL (≈ 4.84 µM); MIC [26]: 8 µg/mL (≈ 4.84 µM); MIC [27]: 32 µg/mL (≈ 19.4 µM)
2 | CCCCCCCCCCCCC(=O)N[C@H](CCCN)C(=O)N[C@H](C(=O)N[C@@H]1C(=O)N[C@H](CCCN)C(=O)N[C@@H](CO)C(=O)N[C@@H](Cc2ccc(O)cc2)C(=O)N[C@H](CCCCN)C(=O)N[C@H](CO)C(=O)N[C@@H]([C@@H](C)CC)C(=O)N2CCC[C@H]2C(=O)N[C@@H]([C@@H](C)CC)C(=O)N2CCC[C@H]2C(=O)N[C@@H]([C@@H](C)CC)C(=O)O[C@@H]1C)C(C)C [Compound A D-form] (Tridecanoyl-[dOrn]VT[dOrn]SY[dK][dS]IPIPI; ester 3-C) | 8 µg/mL (≈ 4.93 µM) | 8 µg/mL (≈ 4.93 µM) | 4 µg/mL (≈ 2.46 µM) | 16 µg/mL (≈ 9.85 µM) | 64 µg/mL (≈ 39.4 µM) | 32 µg/mL (≈ 19.7 µM) | 16 µg/mL (≈ 9.85 µM) | 32 µg/mL (≈ 19.7 µM) | 8 µg/mL (≈ 4.93 µM) | 4 µg/mL (≈ 2.46 µM) | 8 µg/mL (≈ 4.93 µM) | 8 µg/mL (≈ 4.93 µM) | 4 µg/mL (≈ 2.46 µM) | 4 µg/mL (≈ 2.46 µM) | 4 µg/mL (≈ 2.46 µM) | 4 µg/mL (≈ 2.46 µM) | 8 µg/mL (≈ 4.93 µM) | 8 µg/mL (≈ 4.93 µM) | 8 µg/mL (≈ 4.93 µM) | 8 µg/mL (≈ 4.93 µM) | MIC [10]: 8 µg/mL (≈ 4.93 µM); MIC [11]: 8 µg/mL (≈ 4.93 µM); MIC [12]: 8 µg/mL (≈ 4.93 µM); MIC [13]: 8 µg/mL (≈ 4.93 µM); MIC [14]: 8 µg/mL (≈ 4.93 µM); MIC [15]: 8 µg/mL (≈ 4.93 µM); MIC [16]: 8 µg/mL (≈ 4.93 µM); MIC [17]: 16 µg/mL (≈ 9.85 µM); MIC [18]: 8 µg/mL (≈ 4.93 µM); MIC [19]: 16 µg/mL (≈ 9.85 µM); MIC [20]: 8 µg/mL (≈ 4.93 µM); MIC [21]: 8 µg/mL (≈ 4.93 µM); MIC [22]: 8 µg/mL (≈ 4.93 µM); MIC [23]: 16 µg/mL (≈ 9.85 µM); MIC [24]: 8 µg/mL (≈ 4.93 µM); MIC [25]: 16 µg/mL (≈ 9.85 µM); MIC (E. coli CVM40146 (vim-1)): 8 µg/mL (≈ 4.93 µM); MIC (E. coli CVM40148 (veb-1)): 8 µg/mL (≈ 4.93 µM); MIC [26]: 8 µg/mL (≈ 4.93 µM); MIC [27]: 16 µg/mL (≈ 9.85 µM)
